Data on two compounds can be found in patent US7084301B2 (Ranbaxy Laboratories Limited, priority 2003, dated 2006).

Data set [1] concerns the target T1, 5-HT1A receptors (Homo sapiens, UniProt P08908).
T1 sequence (P08908 1-422): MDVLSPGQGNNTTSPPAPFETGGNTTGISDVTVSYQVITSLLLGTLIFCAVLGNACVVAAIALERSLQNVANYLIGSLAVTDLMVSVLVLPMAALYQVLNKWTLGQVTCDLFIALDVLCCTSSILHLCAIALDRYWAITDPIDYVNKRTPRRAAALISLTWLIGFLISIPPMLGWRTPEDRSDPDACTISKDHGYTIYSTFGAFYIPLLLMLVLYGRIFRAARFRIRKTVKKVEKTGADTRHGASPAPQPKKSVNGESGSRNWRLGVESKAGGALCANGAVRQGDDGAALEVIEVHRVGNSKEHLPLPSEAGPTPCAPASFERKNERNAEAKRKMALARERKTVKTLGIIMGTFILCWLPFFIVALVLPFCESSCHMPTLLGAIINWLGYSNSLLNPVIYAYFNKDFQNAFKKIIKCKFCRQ
The following applies: reported, J. Med. Chem. 2000; cited from earlier work.

Data set [2] deals with T2, human α1A-adrenoceptors (Homo sapiens, UniProt P35348).
T2 sequence (P35348 1-466): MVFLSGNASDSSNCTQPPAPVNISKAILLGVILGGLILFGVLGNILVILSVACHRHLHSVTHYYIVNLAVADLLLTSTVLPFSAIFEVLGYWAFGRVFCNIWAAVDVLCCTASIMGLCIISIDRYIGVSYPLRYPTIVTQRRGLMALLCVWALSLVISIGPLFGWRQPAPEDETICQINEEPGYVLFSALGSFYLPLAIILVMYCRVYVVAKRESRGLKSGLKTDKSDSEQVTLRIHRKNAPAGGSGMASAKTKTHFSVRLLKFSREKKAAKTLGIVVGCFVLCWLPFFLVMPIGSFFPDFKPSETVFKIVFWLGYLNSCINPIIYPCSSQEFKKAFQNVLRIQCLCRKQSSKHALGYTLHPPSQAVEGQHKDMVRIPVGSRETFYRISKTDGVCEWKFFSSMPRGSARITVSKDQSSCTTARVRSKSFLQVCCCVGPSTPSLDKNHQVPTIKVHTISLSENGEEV
Kind of data set: Radioligand-receptor binding assay, human recombinant α1A-adrenoceptor, [3H]prazosin. Here is the method:
Chinese hamster ovary (CHO) cells which had been stably transfected with human α1A, α1B, or α1D-adrenoceptors (Keffel et al., Biochem. Biophys. Res. Commun., 2000, 272, 906–11) were cultured in an atmosphere of 5% CO2/95% air at 37° C. in F-12 HAM medium supplemented with 10% heat-inactivated fetal calf serum, 1 mM glutamine, 100 U/ml penicillin and 0.1 mg/ml streptomycin. Selection pressure was maintained by regular addition of geneticin to the culture medium.
Competitive radioligand binding to the cloned subtypes of […] was performed using [^3H]prazosin as the radioligand as described by Michel et al, Br. J. Pharmacol., 98, 883–889 (1989) with minor modifications. Experiments were performed in binding buffer consisting of 50 mM Tris, 10 mM MgCl2 and 0.5 mM EDTA at pH 7.5 in a total assay volume of 1000 μl. The protein content typically was 40–60 μg/assay. The mixtures were incubated at 25° C. for 45 minutes. Incubations were terminated by rapid vacuum filtration over GF/C filters followed by two washes of the filters each with 10 ml ice-cold incubation buffer. Non-specific binding was defined as binding in the presence of 10 μM phentolamine.
The IC50 & Kd were estimated by using the non-linear curve fitting program using G Pad Prism software. The value of inhibition constant Ki was calculated from competitive binding studies by using Cheng & Prusoff equation [Cheng & Prusoff, Biochem. Pharmacol., 22, 3099–3108 (1973)], Ki=IC50/(1+L/Kd), where L is the concentration of [^3H] prazosin used in the particular experiment. Kd of [^3H] prazosin was determined from saturation binding studies. The values were tabulated as mean±SEM of pKi values, where pKi is the −log of Ki value.

As for `CCOc1ccccc1OCCNC(C)Cc1ccc(OC)c(S(N)(=O)=O)c1` (single isomer, unassigned; (-)) [Tamsulosin, (−) isomer of 5-[2-[2-(2-ethoxyphenoxy)ethylamino]-2-methylethyl]-2-methoxybenzene sulfonamide, reference compound], the “affinity for 5-HT1A receptors” value in data set [1] was “subnanomolar affinity”.
The term melting point denotes the temperature of the solid-liquid transition. Compound `CCOc1ccccc1OCCN[C@H](C)Cc1ccc(O)c(S(N)(=O)=O)c1` [Formula I, R (−)-5-[2-[[2-(2-ethoxyphenoxy)ethyl]amino]propyl]-2-hydroxybenzenesulfonamide] returned a melting point of 159.5 °C. The “fold greater affinity for α1A-adrenoreceptor subtype than the corresponding (S)-isomer” value in data set [2] (human recombinant receptors) was found to be 102 fold. Further, the Ki in data set [2] (human recombinant receptors in CHO cells, mean ± SEM, read-out: pKi α1A (converted)) is 0.0219 nM.
